Measured values from US20230129359A1, “MUSCARINIC RECEPTOR 4 ANTAGONISTS AND METHODS OF USE” (Neurocrine Biosciences, Inc., priority 2020, published 2023).

The compounds below were run against T1, human M4 receptor (Homo sapiens, UniProt P08173) (assay: Radioligand ([3H]N-methylscopolamine) binding assay, membranes from CHO cells expressing human M4 receptor). Conditions: Ki against human M4 receptor; membranes from CHO cells; tritiated N-methylscopolamine 1.5 nM; read-out: K.
T1 construct: expressed in transfected cells; host or cells: CHO cells
T1 sequence (P08173 1-479): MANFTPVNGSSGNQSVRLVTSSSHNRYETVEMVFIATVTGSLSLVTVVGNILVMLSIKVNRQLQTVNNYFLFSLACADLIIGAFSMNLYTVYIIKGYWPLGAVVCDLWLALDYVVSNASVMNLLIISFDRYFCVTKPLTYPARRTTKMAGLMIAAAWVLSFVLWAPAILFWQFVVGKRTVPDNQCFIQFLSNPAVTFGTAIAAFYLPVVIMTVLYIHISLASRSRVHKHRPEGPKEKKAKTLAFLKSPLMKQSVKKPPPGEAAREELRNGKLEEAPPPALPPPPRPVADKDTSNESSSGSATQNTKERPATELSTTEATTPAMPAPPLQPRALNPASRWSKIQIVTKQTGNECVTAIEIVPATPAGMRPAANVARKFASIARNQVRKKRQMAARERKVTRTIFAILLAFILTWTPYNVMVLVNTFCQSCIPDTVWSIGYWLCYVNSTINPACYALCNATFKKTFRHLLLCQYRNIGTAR
Method in brief: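 Competition binding used CHO-cell membranes expressing human M4 with 1.5 nM [3H]N-methylscopolamine and twelve compound concentrations ([…]). Incubation was 90 minutes at 37 °C in 50 mM HEPES, 100 mM NaCl, 5 mM MgCl2, 1 mM EDTA, pH 7.4. Bound ligand was collected by filtration onto PEI-treated glass fibre for Ki.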

`C[C@@H]1CN(c2ccc(C(F)(F)F)cc2)C[C@H](C)N1C(=O)OC1CC2(C1)CN(Cc1ccccc1)C2` [Compound 514, 2-benzyl-2-azaspiro[3.3]heptan-6-yl (2R,6S)-2,6-dimethyl-4-[4-(trifluoromethyl)phenyl]pipera-zine-1-carboxylate] and `C[C@@H]1CN(c2ncc(C(F)(F)F)cc2F)C[C@H](C)N1C(=O)OC1CC2(C1)CN(Cc1ccccc1)C2` [Compound 277, 2-benzyl-2-azaspiro[3.3]heptan-6-yl (2R,6S)-4-[3-fluoro-5-(trifluoromethyl)pyridin-2-yl]-2,6-dimethylpiperazine-1-carboxylate] cannot be ordered by Ki: less than 10 nM for the first, less than 10 nM for the second.

`N#Cc1cnc(N2CC3CC(C2)N3C(=O)OC2CC3(C2)CN(Cc2ccccc2)C3)cn1` [Compound 111, 2-benzyl-2-azaspiro[3.3]heptan-6-yl 3-(5-cyanopyrazin-2-yl)-3,6-diazabicyclo[3.1.1]heptane-6-carboxylate] and `O=C(OC1CC2(C1)CN(Cc1ccccc1)C2)N1C2CC1CN(c1cnc(C(F)(F)F)cn1)C2` [Compound 110, 2-benzyl-2-azaspiro[3.3]heptan-6-yl 3-[5-(trifluoromethyl)pyrazin-2-yl]-3,6-diazabicyclo[3.1.1]heptane-6-carboxylate] fall in the same range of Ki: 100 to 1000 nM for the first, 100 to 1000 nM for the second.

First: C[C@@H]1CN(c2cnc(C(F)(F)F)cn2)C[C@@H](C)N1C(=O)NC1CC2(C1)CN(Cc1ccc(Cl)cc1)C2 [Compound 259, (2R,6R)-N-{2-[(4-chlorophenyl)methyl]-2-azaspiro[3.3]heptan-6-yl}-2,6-dimethyl-4-[5-(trifluoromethyl)pyrazin-2-yl]piperazine-1-carboxamide]
Second: C[C@@H]1CN(c2ncc(C(F)(F)F)cn2)C[C@H](C)N1C(=O)NC1CC2(C1)CN(Cc1ccc(O)cc1)C2 [Compound 319, (2R,6S)-N-{2-[(4-hydroxyphenyl)methyl]-2-azaspiro[3.3]heptan-6-yl}-2,6-dimethyl-4-[5-(trifluoromethyl)pyrimidin-2-yl]piperazine-1-carboxamide]
The Ki of the first is higher: 100 to 1000 nM for the first, less than 10 nM for the second. The second binds more tightly here.

First: C[C@@H]1CN(c2nc3cc(F)c(F)cc3s2)[C@@H](C)CN1C(=O)OC1CC2(C1)CN(Cc1ccccc1)C2 [Compound 449, 2-benzyl-2-azaspiro[3.3]heptan-6-yl (2R,5S)-4-(5,6-difluoro-1,3-benzothiazol-2-yl)-2,56-dimethylpiperazine-1-carboxylate]
Second: COc1ccc2nc(N3C[C@@H](C)N(C(=O)OC4CC5(C4)CN(Cc4ccccc4)C5)C[C@H]3C)cnc2c1 [Compound 201, 2-benzyl-2-azaspiro[3.3]heptan-6-yl (2R,5R)-4-(6-methoxyquinoxalin-2-yl)-2,5-dimethylpiperazine-1-carboxylate]
The Ki of the first is lower: less than 10 nM for the first, 100 to 1000 nM for the second.

Compared with `C[C@@H]1CN(c2ncc(C(F)(F)F)cn2)C[C@@H](C)N1C(=O)NC1CC2(C1)CN(Cc1ccccc1)C2` [Compound 65, (2R,6R)-N-{2-benzyl-2-azaspiro[3.3]heptan-6-yl}-2,6-dimethyl-4-[5-(trifluoromethyl)pyrimidin-2-yl]piperazine-1-carboxamide], `C[C@@H]1CN(C(=O)NC2CC3(C2)CN(Cc2ccccc2)C3)[C@@H](C)CN1c1ncc(C(F)(F)F)cn1` [Compound 36, (2S,5R)-N-{2-benzyl-2-azaspiro[3.3]heptan-6-yl}-2,5-dimethyl-4-[5-(trifluoromethyl)pyrimidin-2-yl]piperazine-1-carboxamide] is higher in Ki: less than 10 nM for the first, 10 to 100 nM for the second. The first binds more tightly here.

First: [2H]c1c([2H])c([2H])c(C([2H])([2H])N2CC3(CC(NC(=O)N4[C@H](C)CN(c5ncc(C(F)(F)F)cn5)C[C@@H]4C)C3)C2)c([2H])c1[2H] [Compound 275, (2R,6S)-2,6-dimethyl-N-{2-[(^2H5)phenyl(^2H2)methyl]-2-azaspiro[3.3]heptan-6-yl}-4-[5-(trifluoromethyl)pyrimidin-2-yl]piperazine-1-carboxamide]
Second: C[C@@H]1CN(c2ncc(C(F)(F)F)cn2)C[C@H](C)N1C(=O)NC1CC2(C1)CN(Cc1ccc[nH]1)C2 [Compound 309, (2R,6S)-2,6-dimethyl-N-[2-(1H-pyrrol-2-ylmethyl)-2-azaspiro[3.3]heptan-6-yl]-4-[5-(trifluoromethyl)pyrimidin-2-yl]piperazine-1-carboxamide]
The Ki of the first is lower: less than 10 nM for the first, 10 to 100 nM for the second. The first binds more tightly here.

Compared with `C[C@@H]1CN(c2ncc3cc(F)ccc3n2)C[C@H](C)N1C(=O)OC1CC2(C1)CN(Cc1ccccc1)C2` [Compound 453, 2-benzyl-2-azaspiro[3.3]heptan-6-yl (2R,6S)-4-(6-fluoroquinazolin-2-yl)-2,6-dimethylpiperazine-1-carboxylate], `C[C@@H]1CN(c2ncc3ccccc3n2)C[C@H](C)N1C(=O)OC1CC2(C1)CN(Cc1ccncc1)C2` [Compound 421, 2-(pyridin-4-ylmethyl)-2-azaspiro[3.3]heptan-6-yl (2R,6S)-2,6-dimethyl-4-(quinazolin-2-yl)piperazine-1-carboxylate] is higher in Ki: 10 to 100 nM for the first, 100 to 1000 nM for the second. The first binds more tightly here.

Compared with `C[C@@H]1CN(c2ncc(C(F)(F)F)cn2)[C@@H](C)CN1C(=O)OC1CC2(C1)CN(Cc1ccc(S(C)(=O)=O)cc1)C2` [Compound 501, 2-[(4-methanesulfonylphenyl)methyl]-2-azaspiro[3.3]heptan-6-yl (2R,56S)-2,5-dimethyl-4-[5-(trifluoromethyl)pyrimidin-2-yl]piperazine-1-carboxylate], `C[C@@H]1CN(c2ncc(C(F)(F)F)cn2)[C@@H](C)CN1C(=O)OC1CC2(C1)CN(Cc1ccc(Cl)cc1)C2` [Compound 482, 2-[(4-chlorophenyl)methyl]-2-azaspiro[3.3]heptan-6-yl (2R,5S)-2,5-dimethyl-4-[5-(trifluoromethyl)pyrimidin-2-yl]piperazine-1-carboxylate] is lower in Ki: 100 to 1000 nM for the first, less than 10 nM for the second.

`C[C@@H]1CN(c2ncc(C(F)(F)F)cn2)C[C@H](C)N1C(=O)NC1CC2(C1)CN(Cc1ccc(OC(F)F)cc1)C2` [Compound 322, (2R,6S)-N-(2-{[4-(difluoromethoxy)phenyl]meth-yl}-2-azaspiro[3.3]heptan-6-yl)-2,6-dimethyl-4-[5-(trifluoromethyl)pyrimidin-2-yl]piperazine-1-carboxamide] and `C[C@@H]1CN(c2ncc(OC(F)F)cn2)C[C@H](C)N1C(=O)NC1CC2(C1)CN(Cc1ccccc1)C2` [Compound 247, (2R,6S)-N-{2-benzyl-2-azaspiro[3.3]heptan-6-yl}-4-[5-(difluoromethoxy)pyrimidin-2-yl]-2,6-dimethylpiperazine-1-carboxamide] fall in the same range of Ki: 10 to 100 nM for the first, 10 to 100 nM for the second.

First: C[C@@H]1CN(c2nc3ccccc3s2)CCN1C(=O)NC1CC2(C1)CN(Cc1ccccc1)C2 [Compound 245, (2R)-4-(1,3-benzothiazol-2-yl)-N-{2-benzyl-2-azaspiro[3.3]heptan-6-yl}-2-methylpiperazine-1-carboxamide]
Second: COc1ccc2nc(N3C[C@@H](C)N(C(=O)NC4CC5(C4)CN(Cc4ccccc4)C5)[C@H](C)C3)sc2c1 [Compound 242, (2R,6R)-N-{2-benzyl-2-azaspiro[3.3]heptan-6-yl}-4-(6-methoxy-1,3-benzothiazol-2-yl)-2,6-dimethylpiperazine-1-carboxamide]
The Ki of the first is higher: 10 to 100 nM for the first, less than 10 nM for the second. The second binds more tightly here.

Compared with `C[C@@H]1CN(c2ncc(C(F)(F)F)cn2)C[C@H](C)N1C(=O)NC1CC2(C1)CN(Cc1ccc(Cl)s1)C2` [Compound 340, (2R,6S)-N-{2-[(5-chlorothiophen-2-yl)methyl]-2-azaspiro[3.3]heptan-6-yl}-2,6-dimethyl-4-[5-(trifluoromethyl)pyrimidin-2-yl]piperazine-1-carboxamide], `C[C@@H]1CN(c2ncc(C(F)(F)F)cn2)CCN1C(=O)OC1CC2(C1)CN(Cc1ccc(Cl)cc1)C2` [Compound 478, 2-[(4-chlorophenyl)methyl]-2-azaspiro[3.3]heptan-6-yl (2R)-2-methyl-4-[5-(trifluoromethyl)pyrimidin-2-yl]piperazine-1-carboxylate] is higher in Ki: less than 10 nM for the first, 100 to 1000 nM for the second.

First: CCc1cnc(N2C[C@@H](C)N(C(=O)OC3CC4(C3)CN(Cc3ccccc3)C4)[C@@H](C)C2)nc1 [Compound 497, 2-benzyl-2-azaspiro[3.3]heptan-6-yl (2R,6S)-4-(5-ethylpyrimidin-2-yl)-2,6-dimethylpiperazine-1-carboxylate]
Second: CSc1nc(N2C[C@@H](C)N(C(=O)OC3CC4(C3)CN(Cc3ccccc3)C4)[C@@H](C)C2)ncc1Br [Compound 169, 2-benzyl-2-azaspiro[3.3]heptan-6-yl (2R,6S)-4-[5-bromo-4-(methylsulfanyl)pyrimidin-2-yl]-2,6-dimethylpiperazine-1-carboxylate]
The Ki of the first is lower: less than 10 nM for the first, 10 to 100 nM for the second.

`O=C(OC1CC2(C1)CN(Cc1ccccc1)C2)N1C2COCC1CN(c1ncc(C(F)(F)F)cn1)C2` [Compound 167, 2-benzyl-2-azaspiro[3.3]heptan-6-yl 7-[5-(trifluoromethyl)pyrimidin-2-yl]-3-oxa-7,9-diazabicyclo[3.3.1]nonane-9-carboxylate] and `C[C@@H]1CN(c2cnc(C(F)(F)F)cn2)CCN1C(=O)NC1CC2(C1)CN(Cc1ccc(F)cc1)C2` [Compound 270, (2R)-N-{2-[(4-fluorophenyl)methyl]-2-azaspiro[3.3]heptan-6-yl}-2-methyl-4-[5-(trifluoromethyl)pyrazin-2-yl]piperazine-1-carboxamide] fall in the same range of Ki: 10 to 100 nM for the first, 10 to 100 nM for the second.
